Experiment [1] deals with T1, N-type calcium channel (NTCC) (Homo sapiens, UniProt Q00975).
T1 construct: host or cells: IMR32 cells differentiated with dibutyryl cAMP and bromodeoxyuridine
As to the kind of experiment: FLIPR calcium mobilization assay for N-type calcium channel. Type of experiment: cell-based. Conditions: calcium mobilization in vitro assay; differentiated IMR32 cells. The procedure: Unless noted otherwise, cell culture reagents were purchased from Mediatech of Herndon, Md. IMR32 cells (American Type Culture Collection, ATCC, Manassas, Va.) were routinely cultured in growth medium consisting of minimum essential medium containing 10% fetal bovine serum (FBS, Hyclone, Logan, Utah), 100 U/mL penicillin, 100 μg/mL streptomycin, 2 mM L-glutamine, 1 mM sodium pyruvate, and 1× MEM non-essential amino acids. 80-90% confluent flasks of cells were differentiated using the following differentiation medium: Growth medium plus 1 mM dibutyryl cyclic AMP (Sigma, St. Louis, Mo.), and 2.5 μM bromodeoxyuridine (Sigma). Cells were differentiated for 8 days by replacing differentiation medium every 2-3 days.
FLIPR Calcium Mobilization Assay for N-Type Calcium Channel.
One day prior to performing this assay, differentiated IMR32 cells were treated with 1× CellStripper, and seeded on poly-D-lysine-coated 96-well clear-bottom black plates (Becton Dickinson, Franklin Lakes, N.J.) at 200,000 cells/well. On the day of the assay, the cell plates were washed with IMR32 buffer (127 mM NaCl, 1 mM KCl, 2 mM MgCl2, 700 μM NaH2PO4, 5 mM CaCl2, 5 mM NaHCO3, 8 mM HEPES, 10 mM glucose, pH 7.4), then pre-stimulated with KCl and loaded as follows: 0.05 mL of IMR32 buffer, 0.05 mL of each compound tested diluted in IMR32 buffer containing 20 μM nitrendipine (Sigma), and 0.1 mL KCl dissolved in IMR32 buffer, plus Fluo-4 were added (3 μM final concentration, Molecular Probes, Eugene, Oreg.). Final test compound concentrations ranged from about 846 pM to about 17 μM, final nitrendipine concentration was 5 μM, and final KCl concentration was 90 mM. After 1 hour, the cells were washed twice with 0.05 mL of each compound is tested in nitrendipine-containing IMR32 buffer (no KCl or Fluo-4), and then replaced with 0.1 mL of each compound tested in nitrendipine-containing IMR32 buffer. Plates were then transferred to a Fluorimetric Imaging Plate Reader (FLIPR^96, Molecular Devices, Inc., Sunnyvale, Calif.) for assay. The FLIPR measured basal Fluo-4 fluorescence for 315 seconds (i.e., 5 minutes and 15 seconds), then added 0.1 mL KCl agonist dissolved in IMR32 buffer and measured fluorescence for another 45 seconds. Final test compound concentrations on the cells after FLIPR read ranged from about 846 pM to about 17 μM, final nitrendipine concentration was 5 μM, and final KCl concentration was 90 mM. Data were collected over the entire time course and analyzed using Excel, Graph Pad Prism (version 3.02, Graph Pad, San Diego, Calif.), or an in-house non-linear regression analysis software.

The target in experiment [2] is T2, recombinant rat L-type calcium channel (LTCC) subunits (α1c, α2δ, and β1) (Rattus norvegicus, UniProt P22002).
T2 construct: expressed in transfected cells
As to the kind of experiment: FLIPR calcium mobilization assay for L-type calcium channel. Type of experiment: cell-based. Conditions: calcium mobilization in vitro assay; HEK293 cells expressing rat LTCC. The procedure:
Recombinant human embryonal kidney cells (HEK293, ATCC) stably transfected with either N-type calcium channel (NTCC) subunits (α1b, α2δ, and ⊖3) or L-type calcium channel (LTCC) subunits (α1, α2δ, and β1) were routinely cultured in growth medium consisting of Dulbecco's Modified Eagles Medium containing 10% FBS, 100 U/mL penicillin, 100 μg/mL streptomycin, 4 mM L-glutamine, 500 μg/mL geneticin (G418), 20 μg/mL Blasticidin S (InVivogen, San Diego, Calif.) and 500 μg/mL zeocin (InVivogen).
FLIPR Calcium Mobilization Assay for L-Type Calcium Channel.
One day prior to performing this assay, HEK293 cells stably expressing recombinant rat L-type calcium channel (LTCC) subunits (α1c, α2δ, and β1) were trypsinized, then seeded on poly-D-lysine-coated 96-well clear-bottom black plates (Becton Dickinson, Franklin Lakes, N.J.) at 75,000 cells/well. On the day of the assay, the plates were washed with LTCC wash buffer (127 mM NaCl, 2 mM MgCl2, 700 μM NaH2PO4, 5 mM CaCl2, 5 mM NaHCO3, 8 mM HEPES, 10 mM glucose, pH 7.4), then loaded with 0.1 mL of LTCC wash buffer containing Fluo-4 (3 μM final concentration, Molecular Probes, Eugene, Oreg.). After 1 hour, the cells were washed with 0.1 mL LTCC wash buffer and resuspended in 0.05 mL LTCC assay buffer (same composition as LTCC wash buffer). Plates were then transferred to a FLIPR^96 for assay. The FLIPR measured basal Fluo-4 fluorescence for 15 seconds, then is added 0.05 mL of each compound tested diluted in LTCC assay buffer at final concentrations ranging from about 846 pM to about 17 μM. Fluo-4 fluorescence was then measured for 5 minutes. 0.1 mL KCl agonist dissolved in LTCC assay buffer was then added to the cells to produce a final concentration of 90 mM KCl, and fluorescence was measured for another 45 seconds. Data were collected over the entire time course and analyzed using Excel, Graph Pad Prism, or an in-house regression analysis software.

Bounds are passed on as bounds.

T2 sequence (P22002 whole entry): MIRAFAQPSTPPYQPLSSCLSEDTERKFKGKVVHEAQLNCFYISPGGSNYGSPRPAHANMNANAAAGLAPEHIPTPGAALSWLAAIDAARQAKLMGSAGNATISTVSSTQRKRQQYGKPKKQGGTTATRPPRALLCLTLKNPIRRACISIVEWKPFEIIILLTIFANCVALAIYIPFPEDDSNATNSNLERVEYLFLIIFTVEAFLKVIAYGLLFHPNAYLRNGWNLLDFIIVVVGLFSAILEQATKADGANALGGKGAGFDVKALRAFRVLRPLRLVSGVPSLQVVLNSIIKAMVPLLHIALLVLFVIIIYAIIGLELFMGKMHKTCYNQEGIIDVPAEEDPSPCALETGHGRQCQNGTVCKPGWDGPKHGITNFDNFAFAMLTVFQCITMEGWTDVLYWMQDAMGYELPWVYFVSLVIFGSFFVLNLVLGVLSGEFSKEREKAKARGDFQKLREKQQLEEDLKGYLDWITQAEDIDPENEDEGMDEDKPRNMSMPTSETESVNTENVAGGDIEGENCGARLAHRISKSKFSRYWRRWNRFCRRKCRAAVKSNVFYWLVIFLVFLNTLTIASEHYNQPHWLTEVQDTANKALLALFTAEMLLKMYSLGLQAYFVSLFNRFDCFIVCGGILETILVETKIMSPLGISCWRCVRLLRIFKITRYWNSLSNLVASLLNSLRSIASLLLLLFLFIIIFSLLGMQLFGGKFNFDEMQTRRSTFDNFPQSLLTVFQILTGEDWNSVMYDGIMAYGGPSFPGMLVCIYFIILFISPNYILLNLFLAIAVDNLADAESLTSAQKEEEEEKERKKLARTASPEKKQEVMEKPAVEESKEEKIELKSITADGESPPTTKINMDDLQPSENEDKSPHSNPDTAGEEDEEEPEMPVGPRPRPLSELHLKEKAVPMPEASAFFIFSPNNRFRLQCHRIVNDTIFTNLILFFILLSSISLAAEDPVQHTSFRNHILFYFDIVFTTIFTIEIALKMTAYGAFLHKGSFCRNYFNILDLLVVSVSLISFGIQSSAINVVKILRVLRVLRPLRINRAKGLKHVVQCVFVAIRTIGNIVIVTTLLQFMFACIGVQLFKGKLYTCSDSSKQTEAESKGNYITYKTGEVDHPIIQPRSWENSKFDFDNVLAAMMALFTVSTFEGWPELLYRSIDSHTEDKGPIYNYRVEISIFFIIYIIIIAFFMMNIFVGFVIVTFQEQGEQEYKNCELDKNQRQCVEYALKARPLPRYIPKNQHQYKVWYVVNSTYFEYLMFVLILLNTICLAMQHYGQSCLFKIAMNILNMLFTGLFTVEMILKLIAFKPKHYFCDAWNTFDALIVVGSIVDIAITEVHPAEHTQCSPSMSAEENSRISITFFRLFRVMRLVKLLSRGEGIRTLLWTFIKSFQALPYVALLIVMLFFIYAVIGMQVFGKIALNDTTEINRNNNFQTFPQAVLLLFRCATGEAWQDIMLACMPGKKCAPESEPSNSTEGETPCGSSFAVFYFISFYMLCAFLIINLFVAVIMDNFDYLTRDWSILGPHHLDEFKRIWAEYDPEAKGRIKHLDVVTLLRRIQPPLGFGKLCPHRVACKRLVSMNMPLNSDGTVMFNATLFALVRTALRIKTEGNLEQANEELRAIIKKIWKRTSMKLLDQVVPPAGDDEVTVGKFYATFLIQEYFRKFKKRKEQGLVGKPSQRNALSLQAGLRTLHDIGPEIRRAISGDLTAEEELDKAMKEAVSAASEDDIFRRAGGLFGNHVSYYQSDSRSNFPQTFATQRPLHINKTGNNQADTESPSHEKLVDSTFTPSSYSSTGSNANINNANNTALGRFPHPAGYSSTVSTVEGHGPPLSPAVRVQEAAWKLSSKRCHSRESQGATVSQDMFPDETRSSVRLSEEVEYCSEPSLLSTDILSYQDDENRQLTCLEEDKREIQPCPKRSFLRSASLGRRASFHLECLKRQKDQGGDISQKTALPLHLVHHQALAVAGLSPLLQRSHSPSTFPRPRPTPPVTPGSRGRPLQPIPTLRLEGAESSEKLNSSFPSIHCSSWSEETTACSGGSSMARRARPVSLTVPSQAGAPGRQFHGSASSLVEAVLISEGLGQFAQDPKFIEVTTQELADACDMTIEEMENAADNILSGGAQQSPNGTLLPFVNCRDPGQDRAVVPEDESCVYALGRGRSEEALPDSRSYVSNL
T2 sequence (P54290 25-944 partner limits assumed): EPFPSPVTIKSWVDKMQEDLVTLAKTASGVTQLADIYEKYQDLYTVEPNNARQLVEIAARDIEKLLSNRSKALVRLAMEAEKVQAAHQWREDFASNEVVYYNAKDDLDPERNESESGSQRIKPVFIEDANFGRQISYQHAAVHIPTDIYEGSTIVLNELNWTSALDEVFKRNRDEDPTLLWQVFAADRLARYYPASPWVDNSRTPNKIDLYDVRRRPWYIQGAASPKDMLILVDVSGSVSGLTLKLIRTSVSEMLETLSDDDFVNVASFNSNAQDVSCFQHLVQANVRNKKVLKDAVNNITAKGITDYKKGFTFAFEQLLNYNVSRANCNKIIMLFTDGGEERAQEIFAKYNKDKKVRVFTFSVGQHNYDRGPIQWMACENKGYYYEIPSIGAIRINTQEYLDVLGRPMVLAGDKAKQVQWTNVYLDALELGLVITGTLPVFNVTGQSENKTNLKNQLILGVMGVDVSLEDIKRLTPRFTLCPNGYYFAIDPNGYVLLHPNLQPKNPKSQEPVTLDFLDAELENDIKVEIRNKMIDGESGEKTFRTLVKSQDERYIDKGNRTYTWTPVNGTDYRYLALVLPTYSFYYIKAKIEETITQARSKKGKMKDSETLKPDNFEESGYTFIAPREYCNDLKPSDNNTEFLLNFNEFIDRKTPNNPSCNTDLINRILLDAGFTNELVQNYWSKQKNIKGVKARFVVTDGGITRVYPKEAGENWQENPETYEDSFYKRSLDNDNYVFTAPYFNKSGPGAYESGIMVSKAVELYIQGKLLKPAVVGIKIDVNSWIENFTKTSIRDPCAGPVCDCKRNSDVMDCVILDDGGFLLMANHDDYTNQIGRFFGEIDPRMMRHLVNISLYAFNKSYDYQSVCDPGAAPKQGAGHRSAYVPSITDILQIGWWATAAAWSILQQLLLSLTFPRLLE
T2 sequence (P54290 945-1091 partner limits assumed): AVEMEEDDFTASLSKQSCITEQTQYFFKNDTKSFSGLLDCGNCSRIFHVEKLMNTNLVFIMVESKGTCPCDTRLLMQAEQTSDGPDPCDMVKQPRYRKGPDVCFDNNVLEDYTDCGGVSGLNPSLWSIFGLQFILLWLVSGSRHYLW
T2 sequence (P54283 whole entry partner): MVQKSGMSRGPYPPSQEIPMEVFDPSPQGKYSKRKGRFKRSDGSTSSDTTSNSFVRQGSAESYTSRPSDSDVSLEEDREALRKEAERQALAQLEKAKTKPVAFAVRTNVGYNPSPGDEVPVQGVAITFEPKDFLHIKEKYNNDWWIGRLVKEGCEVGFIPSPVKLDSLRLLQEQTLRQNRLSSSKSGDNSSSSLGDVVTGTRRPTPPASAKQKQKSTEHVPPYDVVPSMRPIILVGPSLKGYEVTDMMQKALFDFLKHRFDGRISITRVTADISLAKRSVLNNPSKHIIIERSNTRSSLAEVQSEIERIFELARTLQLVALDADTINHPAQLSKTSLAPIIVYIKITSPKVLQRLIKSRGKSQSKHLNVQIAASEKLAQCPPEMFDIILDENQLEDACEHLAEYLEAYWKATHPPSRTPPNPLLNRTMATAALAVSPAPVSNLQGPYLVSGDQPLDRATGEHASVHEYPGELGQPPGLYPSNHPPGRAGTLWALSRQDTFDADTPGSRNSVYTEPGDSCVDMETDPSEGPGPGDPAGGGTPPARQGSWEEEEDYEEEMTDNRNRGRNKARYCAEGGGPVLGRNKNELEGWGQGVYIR

As for `CCOc1ccccc1NC(=O)CN1CCC(N(C(C)C)S(=O)(=O)c2cccc(C(F)(F)F)c2)CC1` [Compound 42c, N-(2-Ethoxyphenyl)-2-{4-[isopropyl-(3-trifluoromethylbenzenesulfonyl)amino]-piperidin-1-yl}-acetamide], the IC50 in experiment [1] was 110 nM; in experiment [2], 9540 nM.
In the same order, the values of `O=C(CN1CCC(N(C2CC2)S(=O)(=O)c2cccc(C(F)(F)F)c2)CC1)Nc1cncc(F)c1` [Compound 78, 2-{4-[Cyclopropyl-(3-trifluoromethylbenzenesulfonyl)amino]-piperidin-1-yl}-N-(5-fluoro-pyridin-3-yl)-acetamide] are 610 nM and > 20000 nM.
In the same order, the values of `Cc1ccccc1NCCC(=O)N1CCC(N(C(C)C)S(=O)(=O)c2cccc(C(F)(F)F)c2)CC1` [N-isopropyl-N-[1-(3-o-tolylamino-propionyl)-piperidin-4-yl]-3-trifluoromethyl-benzenesulfonamide] are 430 nM and 5280 nM.
`O=C(CN1CCC(N(C2CC2)S(=O)(=O)c2cccc(C(F)(F)F)c2)CC1)Nc1cc(C(F)(F)F)cc(C(F)(F)F)c1` [Compound 63, N-(3,5-Bis-trifluoromethylphenyl)-2-{4-[cyclopropyl-(3-trifluoromethylbenzenesulfonyl)amino]-piperidin-1-yl}-acetamide]: the IC50 was 660 nM in experiment [1] and > 20000 nM in experiment [2].
In the same order, the values of `CC(C)N(C1CCN(C(=O)C(N)Cc2ccc(OCc3ccccc3)cc2)CC1)S(=O)(=O)c1cccc(C(F)(F)F)c1` (stereo not drawn) [N-{1-[2-amino-3-(4-benzyloxy-phenyl)-propionyl]-piperidin-4-yl}-N-isopropyl-3-trifluoromethyl-benzenesulfonamide] are 710 nM and 2380 nM.
In the case of `O=C(CN1CCC(N(C2CC2)S(=O)(=O)c2cccc(C(F)(F)F)c2)CC1)Nc1cc(F)cc(F)c1` [Compound 74, 2-{4-[Cyclopropyl-(3-trifluoromethylbenzenesulfonyl)amino]-piperidin-1-yl}-N-(3,5-difluorophenyl)-acetamide], the IC50 in experiment [1] is 370 nM; in experiment [2], 6600 nM.
In the same order, the values of `Cc1cc(C)cc(NC(=O)CN2CCC(N(C3CC3)S(=O)(=O)c3cccc(C(F)(F)F)c3)CC2)c1` [Compound 80, 2-{4-[Cyclopropyl-(3-trifluoromethylbenzenesulfonyl)amino]-piperidin-1-yl}-N-(3,5-dimethylphenyl)-acetamide] are 500 nM and > 20000 nM.
`CCOC(=O)c1ccc(NC(=O)CN2CCC(N(C3CC3)S(=O)(=O)c3cccc(C(F)(F)F)c3)CC2)cc1` [Compound 54, 4-(2-{4-[Cyclopropyl-(3-trifluoromethylbenzenesulfonyl)amino]-piperidin-1-yl}-acetylamino)benzoic acid ethyl ester]: the figures for the IC50 in experiment [1] and in experiment [2] were 540 nM and > 20000 nM, respectively.
In the same order, the values of `O=C(CC(=O)N1CCC(N(C2CC2)S(=O)(=O)c2cccc(C(F)(F)F)c2)CC1)Nc1ccc(F)cc1` [Compound 26, 3-{4-[Cyclopropyl-(3-trifluoromethylbenzenesulfonyl)amino]-piperidin-1-yl}-N-(4-fluorophenyl)-3-oxo-propionamide] are 440 nM and 3780 nM.
The corresponding values for `COc1ccc(CNCCC(=O)N2CCC(N(C(C)C)S(=O)(=O)c3cccc(C(F)(F)F)c3)CC2)cc1` [N-isopropyl-N-{1-[3-(4-methoxy-benzylamino)-propionyl]-piperidin-4-yl}-3-trifluoromethyl-benzenesulfonamide] are 320 nM and 4300 nM.
The corresponding values for `CC(C)N(C1CCN(CC(=O)Nc2nc3ccc(F)cc3s2)CC1)S(=O)(=O)c1cccc(C(F)(F)F)c1` [Compound 42i, N-(6-Fluorobenzothiazol-2-yl)-2-{4-[isopropyl-(3-trifluoromethylbenzenesulfonyl)amino]-piperidin-1-yl}-acetamide] are 670 nM and > 20000 nM.
Consider `CC(C)c1ccc(NC(=O)CN2CCC(N(C(C)C)S(=O)(=O)c3cccc(C(F)(F)F)c3)CC2)cc1` [Compound 42f, N-(4-Isopropylphenyl)-2-{4-[isopropyl-(3-trifluoromethylbenzenesulfonyl)amino]-piperidin-1-yl}-acetamide], for which the half-inhibitory concentration (IC50) in experiment [1] was 630 nM; in experiment [2] it was > 20000 nM.
The corresponding values for `COc1ccc(NC(=O)CN2CCC(N(C(C)C)S(=O)(=O)c3cccc(C(F)(F)F)c3)CC2)cc1` [Compound 42h, 2-{4-[isopropyl-(3-trifluoromethylbenzenesulfonyl)amino]-piperidin-1-yl}-N-(4-methoxyphenyl)acetamide] are 460 nM and 5320 nM.
In the same order, the values of `Cc1cccc(C)c1NCCC(=O)N1CCC(N(C(C)C)S(=O)(=O)c2cccc(C(F)(F)F)c2)CC1` [N-{1-[3-(2,6-dimethyl-phenylamino)-propionyl]-piperidin-4-yl}-N-isopropyl-3-trifluoromethyl-benzenesulfonamide] are 460 nM and > 20000 nM.
In the same order, the values of `CC(C)N(C1CCN(C(=O)[C@H](Cc2ccccc2)NCC(N)=O)CC1)S(=O)(=O)c1cccc(C(F)(F)F)c1` [Compound 109, (S)-2-(1-Benzyl-2-{4-[isopropyl(3-trifluoromethylbenzene-sulfonyl)amino]-piperidin-1-yl}-2-oxo-ethylamino)-acetamide] are 790 nM and 7430 nM.
Consider `O=C(CN1CCC(N(C2CC2)S(=O)(=O)c2cccc(C(F)(F)F)c2)CC1)Nc1ccccc1` [Compound 57, 2-{4-[Cyclopropyl-(3-trifluoromethylbenzenesulfonyl)-amino]-piperidin-1-yl}-N-phenyl-acetamide], for which the results for the IC50 in experiment [1] and in experiment [2] were 530 nM and > 20000 nM, respectively.
In the same order, the values of `CC(C)N(C1CCN(CC(=O)Nc2ccc(C(F)(F)F)cn2)CC1)S(=O)(=O)c1cccc(C(F)(F)F)c1` [Compound 42m, 2-{4-[Isopropyl-(3-trifluoromethylbenzenesulfonyl)amino]-piperidin-1-yl}-N-(5-trifluoromethylpyridin-2-yl)-acetamide] are 410 nM and > 20000 nM.
In the same order, the values of `CC(C)C[C@H](NC1CCCC1)C(=O)N1CCC(N(C(C)C)S(=O)(=O)c2cccc(C(F)(F)F)c2)CC1` [Compound 88c, (S)—N-[1-(2-Cyclopentylamino-4-methyl-pentanoyl)-piperidin-4-yl]-N-isopropyl-3-trifluoromethyl-benzenesulfonamide] are 620 nM and 7080 nM.
